{
  "source": "patent US20250059159A1",
  "about": "“PLPRO INHIBITORS” (SHANGHAI SYNERGY PHARMACEUTICAL SCIENCES CO., LTD., priority 2021, published 2025)",
  "data": [
    {"target": "SARS-CoV-2 PLpro (Severe acute respiratory syndrome coronavirus 2 (2019-nCoV) (SARS-CoV-2), UniProt P0DTD1)", "test": "PLpro enzymatic inhibition assay (IC50 value determination)", "format": "biochemical", "conditions": "60 min preincubation for covalent inhibitors, 10 min for non-covalent, read-out: Inhibition of SARS-CoV-2 PLpro IC50 range", "units": {"IC50": "µM"}, "values": [
      {"smiles": "C[C@H](c1cccc2ccccc12)N1CCC(N(CC(=O)NCC(=O)NCC=O)S(C)(=O)=O)CC1", "note": "[Compound 64, (R)-2-(N-(1-(1-(naphthalen-1-yl)ethyl)piperidin-4-yl)methylsulfonamido)-N-(2-oxo-2-((2-oxoethyl)amino)ethyl)acetamide]", "IC50": "< 0.1"},
      {"smiles": "COC(=O)/C=C/CNC(=O)CNC(=O)CN(/C=C/C(=O)C(F)(F)F)C1CCN([C@H](C)c2cccc3ccccc23)CC1", "note": "[Compound 67, methyl (E)-4-(2-(2-((1-((R)-1-(naphthalen-1-yl)ethyl)piperidin-4-yl)((E)-4,4,4-trifluoro-3-oxobut-1-en-1-yl)amino)acetamido)acetamido)but-2-enoate]", "IC50": "< 0.1"},
      {"smiles": "C#CCNC(=O)CCC(=O)CN(C1CCN([C@H](C)c2cccc3ccccc23)CC1)S(C)(=O)=O", "note": "[Compound 81, (R)-5-(N-(1-(1-(naphthalen-1-yl)ethyl)piperidin-4-yl)methylsulfonamido)-4-oxo-N-(prop-2-yn-1-yl)pentanamide]", "IC50": "1 to 10"},
      {"smiles": "C#CCNC(=O)CNC(=O)CN(C1CCN(C(C)c2cccc3cccnc23)CC1)S(C)(=O)=O", "note": "(stereo not shown) [Compound 82, N-(2-oxo-2-(prop-2-yn-1-ylamino)ethyl)-2-(N-(1-(1-(quinolin-8-yl)ethyl)piperidin-4-yl)methylsulfonamido)acetamide]", "IC50": "0.1 to 1"},
      {"smiles": "C#CCNC(=O)CNC(=O)CN(C1CCN(C(C)c2c(F)ccc3ccccc23)CC1)S(C)(=O)=O", "note": "(stereo not shown) [Compound 83, 2-(N-(1-(1-(2-fluoronaphthalen-1-yl)ethyl)piperidin-4-yl)methylsulfonamido)-N-(2-oxo-2-(prop-2-yn-1-ylamino)ethyl)acetamide]", "IC50": "0.1 to 1"},
      {"smiles": "C#CCNC(=O)CNC(=O)CN(C1CCN(C(C)c2cccc3ccc(Cl)cc23)CC1)S(C)(=O)=O", "note": "(stereo not shown) [Compound 84, 2-(N-(1-(1-(7-chloronaphthalen-1-yl)ethyl)piperidin-4-yl)methylsulfonamido)-N-(2-oxo-2-(prop-2-yn-1-ylamino)ethyl)acetamide]", "IC50": "< 0.1"},
      {"smiles": "C#CCNC(=O)CNC(=O)CN(C1CCN(C(C)c2ccnc3ccccc23)CC1)S(C)(=O)=O", "note": "(stereo not shown) [Compound 85, N-(2-oxo-2-(prop-2-yn-1-ylamino)ethyl)-2-(N-(1-(1-(quinolin-4-yl)ethyl)piperidin-4-yl)methylsulfonamido)acetamide]", "IC50": "0.1 to 1"},
      {"smiles": "C#CCNC(=O)CNC(=O)CN(C1CCN([C@@H](C)c2cccc3ccccc23)CC1)S(C)(=O)=O", "note": "[Compound 89, (S)-2-(N-(1-(1-(naphthalen-1-yl)ethyl)piperidin-4-yl)methylsulfonamido)-N-(2-oxo-2-(prop-2-yn-1-ylamino)ethyl)acetamide]", "IC50": "< 0.1"},
      {"smiles": "C#CCNC(=O)CNC(=O)CN(C1CCN([C@@H](C)c2cccc3ccccc23)CC1)S(=O)(=O)C1CC1", "note": "[Compound 90, (S)-2-(N-(1-(1-(naphthalen-1-yl)ethyl)piperidin-4-yl)cyclopropanesulfonamido)-N-(2-oxo-2-(prop-2-yn-1-ylamino)ethyl)acetamide]", "IC50": "< 0.1"},
      {"smiles": "C#CCNC(=O)CNC(=O)CN(C1CCN([C@@H](C)c2cccc3ccccc23)CC1)S(=O)(=O)N1CCCC1", "note": "[Compound 91, (S)-2-(N-(1-(1-(naphthalen-1-yl)ethyl)piperidin-4-yl)pyrrolidine-1-sulfonamido)-N-(2-oxo-2-(prop-2-yn-1-ylamino)ethyl)acetamide]", "IC50": "< 0.1"},
      {"smiles": "C#CCNC(=O)CNC(=O)[C@@H]1CNS(=O)(=O)N1C1CCN([C@H](C)c2cccc3ccccc23)CC1", "note": "[Compound 92, (S)-2-(1-((R)-1-(naphthalen-1-yl)ethyl)piperidin-4-yl)-N-(2-oxo-2-(prop-2-yn-1-ylamino)ethyl)-1,2,5-thiadiazolidine-3-carboxamide 1,1-dioxide 2,2,2-trifluoroacetate]", "IC50": "1 to 10"},
      {"smiles": "C#CCNC(=O)CNC(=O)CN(C1CCN([C@H](C)c2cccc3ccccc23)CC1F)S(C)(=O)=O", "note": "(stereo partly drawn) [Compound 93, 2-(N-(3-fluoro-1-((R)-1-(naphthalen-1-yl)ethyl)piperidin-4-yl)methylsulfonamido)-N-(2-oxo-2-(prop-2-yn-1-ylamino)ethyl)acetamide]", "IC50": "0.1 to 1"},
      {"smiles": "C#CCNC(=O)CNC(=O)CN(C1CCN(C(C)c2cccc(Cl)c2Cl)CC1)S(C)(=O)=O", "note": "(stereo not shown) [Compound 94, 2-(N-(1-(1-(2,3-dichlorophenyl)ethyl)piperidin-4-yl)methylsulfonamido)-N-(2-oxo-2-(prop-2-yn-1-ylamino)ethyl)acetamide]", "IC50": "0.1 to 1"},
      {"smiles": "C#CCNC(=O)CNC(=O)CN(C1CCN(C(C)c2ccc(OC)c3ccccc23)CC1)S(C)(=O)=O", "note": "(stereo not shown) [Compound 96, 2-(N-(1-(1-(4-methoxynaphthalen-1-yl)ethyl)piperidin-4-yl)methylsulfonamido)-N-(2-oxo-2-(prop-2-yn-1-ylamino)ethyl)acetamide]", "IC50": "< 0.1"},
      {"smiles": "C#CCNC(=O)CNC(=O)CN(C1CCN(C(C)c2cccc3ccccc23)CC1)S(C)(=O)=O", "note": "(stereo not shown) [Compound 97, 2-(N-(1-(1-(naphthalen-1-yl)ethyl)piperidin-4-yl)methylsulfonamido)-N-(2-oxo-2-(prop-2-yn-1-ylamino)ethyl)acetamide]", "IC50": "< 0.1"},
      {"smiles": "C#CCNC(=O)CNC(=O)CN(C1CCN(C(C)c2cccc3ccccc23)CC1)S(=O)(=O)N1CCCC1", "note": "(stereo not shown) [Compound 98, 2-(N-(1-(1-(naphthalen-1-yl)ethyl)piperidin-4-yl)pyrrolidine-1-sulfonamido)-N-(2-oxo-2-(prop-2-yn-1-ylamino)ethyl)acetamide]", "IC50": "< 0.1"},
      {"smiles": "C#CCNC(=O)CNC(=O)CN(C1CCN(C(C)c2cccc(C)c2C)CC1)S(C)(=O)=O", "note": "(stereo not shown) [Compound 99, 2-(N-(1-(1-(2,3-dimethylphenyl)ethyl)piperidin-4-yl)methylsulfonamido)-N-(2-oxo-2-(prop-2-yn-1-ylamino)ethyl)acetamide]", "IC50": "< 0.1"},
      {"smiles": "C#CCNC(=O)CNC(=O)CN(C1CCN(C(c2cccc3ccccc23)C(F)(F)F)CC1)S(C)(=O)=O", "note": "(stereo not shown) [Compound 100, N-(2-oxo-2-(prop-2-yn-1-ylamino)ethyl)-2-(N-(1-(2,2,2-trifluoro-1-(naphthalen-1-yl)ethyl)piperidin-4-yl)methylsulfonamido)acetamide]", "IC50": "0.1 to 1"},
      {"smiles": "C#CCNC(=O)CNC(=O)CN(C1CCN(C(C)c2ccccc2Cl)CC1)S(C)(=O)=O", "note": "(stereo not shown) [Compound 101, 2-(N-(1-(1-(2-chlorophenyl)ethyl)piperidin-4-yl)methylsulfonamido)-N-(2-oxo-2-(prop-2-yn-1-ylamino)ethyl)acetamide]", "IC50": "< 0.1"},
      {"smiles": "C#CCNC(=O)CNC(=O)CN(C1CCN(C(C)c2ccccc2C(F)(F)F)CC1)S(C)(=O)=O", "note": "(stereo not shown) [Compound 102, N-(2-oxo-2-(prop-2-yn-1-ylamino)ethyl)-2-(N-(1-(1-(2-(trifluoromethyl)phenyl)ethyl)piperidin-4-yl)methylsulfonamido)acetamide]", "IC50": "0.1 to 1"},
      {"smiles": "C#CCNC(=O)CNC(=O)CN(C1CCN(C(CC)c2cccc3ccccc23)CC1)S(C)(=O)=O", "note": "(stereo not shown) [Compound 103, 2-(N-(1-(1-(naphthalen-1-yl)propyl)piperidin-4-yl)methylsulfonamido)-N-(2-oxo-2-(prop-2-yn-1-ylamino)ethyl)acetamide]", "IC50": "0.1 to 1"},
      {"smiles": "C#CCNC(=O)CNC(=O)CN(C1CCN(C2(c3cccc4ccccc34)CC2)CC1)S(C)(=O)=O", "note": "[Compound 105, 2-(N-(1-(1-(naphthalen-1-yl)cyclopropyl)piperidin-4-yl)methylsulfonamido)-N-(2-oxo-2-(prop-2-yn-1-ylamino)ethyl)acetamide]", "IC50": "1 to 10"}
    ]}
  ]
}
